Data from PubChem BioAssay AID1963429 (Molecular Pharmacology Branch, DTP, NCI, 2024).
“And” between values parts separate entries of the source, which are not always exact repeats. Equal values may be shown once.

Tested on: 126254-015-R-J1-PDC complex spheroid growth, % test/control
Assay: Anticancer human tumor 126254-015-R-J1-PDC patient-derived soft tissue sarcoma cell line growth inhibition [Asc]
Settings: for viability, T/C: stronger effect = lower value
Procedure, shortened: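 Spheroid model: tumor line + HUVEC + hMSC. Single agents and combinations; top conc. at/near clinical Cmax (10 microM if undetermined), half-log dilutions. DMSO stocks at 800-fold test concentration.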

[1] = curve of first compound, second compound 0.01 µM
[2] = curve of first compound, second compound 0.0316 µM
[3] = curve of first compound, second compound 0.1 µM
[4] = curve of first compound, second compound 0.316 µM
[5] = curve of first compound, second compound 1 µM
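Also: spheroids exposed to compound for seven days.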
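For viability, T/C in this document: 100% = DMSO vehicle control wells.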

Question: Which results are given for CCN1CCN(Cc2ccc(Nc3ncc(F)c(-c4cc(F)c5nc(C)n(C(C)C)c5c4)n3)nc2)CC1 + CNC(C)C(=O)NC1CN(S(=O)(=O)c2cccc(S(=O)(=O)N3CCC4CCC(C(=O)NC(c5ccccc5)c5ccccc5)N4C(=O)C(NC(=O)C(C)NC)C3)c2)CCC2CCC(C(=O)NC(c3ccccc3)c3ccccc3)N2C1=O?
Answer: IC50 [1]: > 1000 nM; IC50 [2]: > 1000 nM; IC50 [3]: > 1000 nM; IC50 [4]: > 1000 nM; IC50 [5]: > 1000 nM; viability, T/C (second compound 0.01 µM, first compound 0.00316 µM): 94.4%; viability, T/C (second compound 0.01 µM, first compound 0.01 µM): 96.4%; viability, T/C (second compound 0.01 µM, first compound 0.0316 µM): 91.5%; viability, T/C (second compound 0.01 µM, first compound 0.1 µM): 82.5%; viability, T/C (second compound 0.01 µM, first compound 0.316 µM): 97%; viability, T/C (second compound 0.01 µM, first compound 1 µM): 91.6%; viability, T/C (second compound 0.0316 µM, first compound 0.00316 µM): 71%; viability, T/C (second compound 0.0316 µM, first compound 0.01 µM): 74.4%; viability, T/C (second compound 0.0316 µM, first compound 0.0316 µM): 77.8%; viability, T/C (second compound 0.0316 µM, first compound 0.1 µM): 80.1%; viability, T/C (second compound 0.0316 µM, first compound 0.316 µM): 81.7%; viability, T/C (second compound 0.0316 µM, first compound 1 µM): 77.6%; viability, T/C (second compound 0.1 µM, first compound 0.00316 µM): 61.4%; viability, T/C (second compound 0.1 µM, first compound 0.01 µM): 68.7%; viability, T/C (second compound 0.1 µM, first compound 0.0316 µM): 62.9%; viability, T/C (second compound 0.1 µM, first compound 0.1 µM): 69%; viability, T/C (second compound 0.1 µM, first compound 0.316 µM): 75.9%; viability, T/C (second compound 0.1 µM, first compound 1 µM): 79.6%; viability, T/C (second compound 0.316 µM, first compound 0.00316 µM): 57.8%; viability, T/C (second compound 0.316 µM, first compound 0.01 µM): 62.5%; viability, T/C (second compound 0.316 µM, first compound 0.0316 µM): 62.4%; viability, T/C (second compound 0.316 µM, first compound 0.1 µM): 67.4%; viability, T/C (second compound 0.316 µM, first compound 0.316 µM): 65.6%; viability, T/C (second compound 0.316 µM, first compound 1 µM): 71.8%; viability, T/C (second compound 1 µM, first compound 0.00316 µM): 59.2%; viability, T/C (second compound 1 µM, first compound 0.01 µM): 61.5%; viability, T/C (second compound 1 µM, first compound 0.0316 µM): 65%; viability, T/C (second compound 1 µM, first compound 0.1 µM): 52.6%; viability, T/C (second compound 1 µM, first compound 0.316 µM): 57.2%; viability, T/C (second compound 1 µM, first compound 1 µM): 60.9%

Question: For Cc1nc(N2CCC3(CC2)COC(C)C3N)c(CO)nc1Sc1ccnc(N)c1Cl (configuration not stated) + CNC(C)C(=O)NC1CN(S(=O)(=O)c2cccc(S(=O)(=O)N3CCC4CCC(C(=O)NC(c5ccccc5)c5ccccc5)N4C(=O)C(NC(=O)C(C)NC)C3)c2)CCC2CCC(C(=O)NC(c3ccccc3)c3ccccc3)N2C1=O, which IC50 [1] is on record?
Answer: 2520 nM

Question: What about the IC50 [2] of the same compound?
Answer: 893 nM

Question: What about the IC50 [3] of the same compound?
Answer: 443 nM

Question: What about the IC50 [4] of the same compound?
Answer: 264 nM

Question: And the IC50 [5]?
Answer: 196 nM

Question: And the viability, T/C (second compound 0.01 µM, first compound 0.00949 µM)?
Answer: 93.8%

Question: What about the viability, T/C (second compound 0.01 µM, first compound 0.03 µM) of the same compound?
Answer: 91.4%

Question: And the viability, T/C (second compound 0.01 µM, first compound 0.0949 µM)?
Answer: 76.8%

Question: And the viability, T/C (second compound 0.01 µM, first compound 0.3 µM)?
Answer: 65.9%

Question: And the viability, T/C (second compound 0.01 µM, first compound 0.949 µM)?
Answer: 63.4%

Question: What about the viability, T/C (second compound 0.01 µM, first compound 3 µM) of the same compound?
Answer: 46.8%

Question: What about the viability, T/C (second compound 0.0316 µM, first compound 0.00949 µM) of the same compound?
Answer: 76%

Question: And the viability, T/C (second compound 0.0316 µM, first compound 0.03 µM)?
Answer: 73.8%

Question: And the viability, T/C (second compound 0.0316 µM, first compound 0.0949 µM)?
Answer: 67.9%

Question: And the viability, T/C (second compound 0.0316 µM, first compound 0.3 µM)?
Answer: 67.5%

Question: What about the viability, T/C (second compound 0.0316 µM, first compound 0.949 µM) of the same compound?
Answer: 48.4%

Question: And the viability, T/C (second compound 0.0316 µM, first compound 3 µM)?
Answer: 42.2%

Question: And the viability, T/C (second compound 0.1 µM, first compound 0.00949 µM)?
Answer: 72.7%

Question: What about the viability, T/C (second compound 0.1 µM, first compound 0.03 µM) of the same compound?
Answer: 63%

Question: And the viability, T/C (second compound 0.1 µM, first compound 0.0949 µM)?
Answer: 57.6%

Question: What about the viability, T/C (second compound 0.1 µM, first compound 0.3 µM) of the same compound?
Answer: 52.5%

Question: What about the viability, T/C (second compound 0.1 µM, first compound 0.949 µM) of the same compound?
Answer: 49.4%

Question: What about the viability, T/C (second compound 0.1 µM, first compound 3 µM) of the same compound?
Answer: 35.5%

Question: And the viability, T/C (second compound 0.316 µM, first compound 0.00949 µM)?
Answer: 57.8%

Question: And the viability, T/C (second compound 0.316 µM, first compound 0.03 µM)?
Answer: 55.4%

Question: And the viability, T/C (second compound 0.316 µM, first compound 0.0949 µM)?
Answer: 56.3%

Question: And the viability, T/C (second compound 0.316 µM, first compound 0.3 µM)?
Answer: 52.1%

Question: And the viability, T/C (second compound 0.316 µM, first compound 0.949 µM)?
Answer: 38.6%

Question: And the viability, T/C (second compound 0.316 µM, first compound 3 µM)?
Answer: 41.9%

Question: What about the viability, T/C (second compound 1 µM, first compound 0.00949 µM) of the same compound?
Answer: 57.6%

Question: What about the viability, T/C (second compound 1 µM, first compound 0.03 µM) of the same compound?
Answer: 59.6%

Question: And the viability, T/C (second compound 1 µM, first compound 0.0949 µM)?
Answer: 59.6%

Question: And the viability, T/C (second compound 1 µM, first compound 0.3 µM)?
Answer: 44.7%

Question: And the viability, T/C (second compound 1 µM, first compound 0.949 µM)?
Answer: 30%

Question: What about the viability, T/C (second compound 1 µM, first compound 3 µM) of the same compound?
Answer: 33.5%

Question: For O=C(c1cc(Cc2n[nH]c(=O)c3ccccc23)ccc1F)N1CCN(C(=O)C2CC2)CC1, which viability, T/C (compound 0.0316 µM) is on record?
Answer: 95.9% and 107% and 96.9%

Question: And the viability, T/C (compound 0.1 µM)?
Answer: 93.1% and 96.8% and 103%

Question: What about the viability, T/C (compound 0.316 µM) of the same compound?
Answer: 88.4% and 102% (2×)

Question: And the viability, T/C (compound 1 µM)?
Answer: 86.6% and 93.3% and 97.7%

Question: What about the viability, T/C (compound 3.16 µM) of the same compound?
Answer: 79.3% and 83.1% and 87.7%

Question: What about the viability, T/C (compound 10 µM) of the same compound?
Answer: 64.2% and 68.1% and 68.5%

Question: What about the IC50 (curve of compound) of the same compound?
Answer: > 10000 nM

Question: Which results are given for C=CC(=O)N1CCN(c2nc(=O)n(-c3c(C)ccnc3C(C)C)c3nc(-c4c(O)cccc4F)c(F)cc23)C(C)C1 (configuration not stated) + CCN1C(C(=O)NC23CCC(C(=O)O)(CC2)CC3)C(c2cccc(Cl)c2F)C2(C(=O)Nc3cc(Cl)ccc32)C12CCCCC2?
Answer: IC50 (curve of first compound, second compound 0.03 µM): > 10000 nM; IC50 (curve of first compound, second compound 0.0949 µM): > 10000 nM; IC50 (curve of first compound, second compound 0.3 µM): > 10000 nM; IC50 (curve of first compound, second compound 0.949 µM): > 10000 nM; IC50 (curve of first compound, second compound 3 µM): > 10000 nM; viability, T/C (second compound 0.03 µM, first compound 0.0316 µM): 94.8%; viability, T/C (second compound 0.03 µM, first compound 0.1 µM): 114%; viability, T/C (second compound 0.03 µM, first compound 0.316 µM): 106%; viability, T/C (second compound 0.03 µM, first compound 1 µM): 103%; viability, T/C (second compound 0.03 µM, first compound 3.16 µM): 114%; viability, T/C (second compound 0.03 µM, first compound 10 µM): 89%; viability, T/C (second compound 0.0949 µM, first compound 0.0316 µM): 110%; viability, T/C (second compound 0.0949 µM, first compound 0.1 µM): 92.6%; viability, T/C (second compound 0.0949 µM, first compound 0.316 µM): 98.1%; viability, T/C (second compound 0.0949 µM, first compound 1 µM): 104%; viability, T/C (second compound 0.0949 µM, first compound 3.16 µM): 111%; viability, T/C (second compound 0.0949 µM, first compound 10 µM): 88.5%; viability, T/C (second compound 0.3 µM, first compound 0.0316 µM): 98.4%; viability, T/C (second compound 0.3 µM, first compound 0.1 µM): 121%; viability, T/C (second compound 0.3 µM, first compound 0.316 µM): 106%; viability, T/C (second compound 0.3 µM, first compound 1 µM): 112%; viability, T/C (second compound 0.3 µM, first compound 3.16 µM): 105%; viability, T/C (second compound 0.3 µM, first compound 10 µM): 98.5%; viability, T/C (second compound 0.949 µM, first compound 0.0316 µM): 94.9%; viability, T/C (second compound 0.949 µM, first compound 0.1 µM): 109%; viability, T/C (second compound 0.949 µM, first compound 0.316 µM): 106%; viability, T/C (second compound 0.949 µM, first compound 1 µM): 120%; viability, T/C (second compound 0.949 µM, first compound 3.16 µM): 110%; viability, T/C (second compound 0.949 µM, first compound 10 µM): 84.2%; viability, T/C (second compound 3 µM, first compound 0.0316 µM): 109%; viability, T/C (second compound 3 µM, first compound 0.1 µM): 109%; viability, T/C (second compound 3 µM, first compound 0.316 µM): 106%; viability, T/C (second compound 3 µM, first compound 1 µM): 109%; viability, T/C (second compound 3 µM, first compound 3.16 µM): 109%; viability, T/C (second compound 3 µM, first compound 10 µM): 93.2%
